The values that follow come from publication PMC2774465 (Journal of natural products, 2008).

Assay [1] relates to Leishmania. The conditions noted are these: cited from earlier work.
Assay [2] relates to Plasmodium falciparum. As to the kind of experiment: Malaria bioassay. The assay is classed as cell-based.
Assay [3] concerns Trypanasoma cruzi. Kind of assay: Chagas disease bioassay. The assay is classed as cell-based, T. cruzi. The conditions noted are these: Trypanosoma cruzi.
The subject of assay [4] is L. donovani amastigotes (LD-1S/MHOM/SD/00-strain 1S). It is filed as cell-based. The conditions noted are these: Leishmania donovani, read-out: IC50 L. donovani.

The structures appear in SMILES notation. ≈ marks a conversion by molar mass, not a printed value. Where two headings read alike, the source gives them in different places.

As to `COc1cc(OC)c(-c2ccc(OC)c3c(OC)cc(C)cc23)c2c1C(C)=N[C@@H](C)C2` [ancistrotanzanine B], the “antileishmanial activity IC50” value in assay [1] is 1.6 mg/L.

In the case of `O=C1CCC2(Oc3cccc4cccc(c34)O2)c2cccc(O)c21` [Compound 2, palmarumycin CP2], the IC50 in assay [2] (read-out: IC50 P. falciparum) is above 10 mg/L.

With `CC1CS(=O)(=O)CCN1/N=C/c1ccc([N+](=O)[O-])o1` (stereo not drawn) [nifurtimox, reference compound], the IC50 in assay [3] (read-out: IC50 (positive control, Chagas disease bioassay)) was 3 to 5 mg/L (≈ 10.4 to 17.4 µM).

In the case of `COc1cc(OC)c(-c2c(C)cc3cccc(OC)c3c2O)c2c1C(C)=N[C@@H](C)C2` [ancistrotanzanine A], in assay [1], the “antileishmanial activity IC50” value was 1.8 mg/L.

`O=C1CCC2(Oc3cccc4cccc(c34)O2)c2c(O)ccc(O)c21` [Compound 3, palmarumycin CP17]: the IC50 in assay [3] (read-out: IC50 T. cruzi) and in assay [2] (read-out: IC50 P. falciparum) was above 10 mg/L each time.

For the compound `O=C1C=CC(=O)C2=C1[C@@H](O)CCC21Oc2cccc3cccc(c23)O1` [Compound 4, 4(S)-hydroxy-2,3-dihydro-2(H)-spiro[naphthalene-1(4H),2'-naphtho[1,8-de][1,3]dioxin]-5,8-dione], the IC50 in assay [3] (read-out: IC50 T. cruzi) and in assay [2] (read-out: IC50 P. falciparum) was above 10 mg/L in each case.

`O=C1C=C[C@]23Oc4ccc(O)c5c4[C@](CCC5=O)(Oc4cccc1c42)O3` [Compound 1, preussomerin EG1]: the IC50 in assay [3] (read-out: IC50 T. cruzi) is above 10 mg/L.

`Oc1cccc2c1[C@@H](O)CCC21Oc2cccc3cccc(c23)O1` [Compound 5, CJ-12,371]: in assay [2] (read-out: IC50 P. falciparum), the IC50 is above 10 mg/L.

`C[C@@H]1[C@H](O)[C@@H](C)/C=C/C=C/C=C/C=C/C=C/C=C/C=C/[C@H](O[C@@H]2O[C@H](C)[C@@H](O)[C@H](N)[C@@H]2O)C[C@@H]2O[C@](O)(C[C@@H](O)C[C@@H](O)[C@H](O)CC[C@@H](O)C[C@@H](O)CC(=O)O[C@H]1C)C[C@H](O)[C@H]2C(=O)O` [amphotericin B]: in assay [4], the IC50 came out at 0.09 µM.

With `CCN(CC)CCCC(C)Nc1ccnc2cc(Cl)ccc12` (stereo not drawn) [chloroquine, reference compound], the IC50 in assay [2] (read-out: IC50 (positive control, malaria bioassay)) fell in the range of 0.08 to 0.1 µM.

In general, IC50 refers to the concentration that inhibits the measured activity by half.
